Experimental data reported in patent USRE47302E1 (ONYX THERAPEUTICS INC., priority 2013, dated 2019).
≈ marks a conversion by molar mass, not a printed value.

Test: Solubility pH 7
Details: pH 7, aqueous buffer

Row | solubility [µg/mL] | Compound
1 | 9010 (≈ 15.8 mM) | COc1cc(C[C@H](NC(=O)[C@H](C)NC(=O)CN2CCOCC2)C(=O)N[C@@H](CC2=CCCC2)C(=O)[C@@]2(C)CO2)ccn1 [Compound C-1141, (S)-N-((S)-3-(Cyclopent-1-en-1-yl)-1-((R)-2-methyloxiran-2-yl)-1-oxopropan-2-yl)-3-(2-methoxypyridin-4-yl)-2-((S)-2-(2-morpholinoacetamido)propanamido)propanamide]
2 | 3860 (≈ 6.32 mM) | C[C@H](NC(=O)CN1CCOCC1)C(=O)N[C@@H](Cc1ccc2c(c1)CCC(=O)N2)C(=O)N[C@@H](CC1CCCC1)C(=O)[C@@]1(C)CO1 [Compound C-1086, (S)-N-((S)-3-cyclopentyl-1-((R)-2-methyloxiran-2-yl)-1-oxopropan-2-yl)-2-((S)-2-(2-morpholinoacetamido)propanamido)-3-(2-oxo-1,2,3,4-tetrahydroquinolin-6-yl)propanamide]
3 | 6890 (≈ 12 mM) | COc1ccc(C[C@H](NC(=O)[C@H](C)NC(=O)CN2CCOCC2)C(=O)N[C@@H](C[C@@H]2CCCO2)C(=O)[C@@]2(C)CO2)cc1 [Compound C-1016, (S)-3-(4-methoxyphenyl)-N-((S)-1-((R)-2-methyloxhan-2-yl)-1-oxo-3-((S)-tetrahydrofuran-2-yl)propan-2-yl)-2-((S)-2-(2-morpholinoacetamido)propanamido)propanamide]
4 | 7280 (≈ 11.5 mM) | C[C@H](NC(=O)CN1CCOCC1)C(=O)N[C@@H](Cc1ccc(S(C)(=O)=O)cc1)C(=O)N[C@@H](CC1=CCCCC1)C(=O)[C@@]1(C)CO1 [Compound C-1126, (S)-N-((S)-3-(cyclohex-1-en-1-yl)-1-((R)-2-methyloxiran-2-yl)-1-oxopropan-2-yl)-3-(4-(methylsulfonyl)phenyl)-2-((S)-2-(2-morpholinoacetamido)propanamido)propanamide]
5 | 1470 (≈ 2.52 mM) | C[C@H](NC(=O)CN1CCOCC1)C(=O)N[C@@H](Cc1ccc2[nH]ccc2c1)C(=O)N[C@@H](CC1CCCC1)C(=O)[C@@]1(C)CO1 [Compound C-1123, (S)-N-((S)-3-cyclopentyl-1-((R)-2-methyloxiran-2-yl)-1-oxopropan-2-yl)-3-(1H-indol-5-yl)-2-((S)-2-(2-morpholinoacetamido)propanamido)propanamide]
6 | 1700 (≈ 2.98 mM) | Cc1cc(C[C@H](NC(=O)[C@H](C)NC(=O)CN2CCOCC2)C(=O)N[C@@H](CC2=CCCC2)C(=O)[C@@]2(C)CO2)ccc1O [Compound C-1131, (S)-N-((S)-3-(cyclopent-1-en-1-yl)-1-((R)-2-methyloxiran-2-yl)-1-oxopropan-2-yl)-3-(4-hydroxy-3-methylphenyl)-2-((S)-2-(2-morpholinoacetamido)propanamido)propanamide]
7 | 200 (≈ 0.334 mM) | COc1ccc(C[C@H](NC(=O)[C@@H](NC(=O)CN2CCOCC2)C2CC2)C(=O)N[C@@H](CC2CCCC2)C(=O)[C@@]2(C)CO2)cc1 [Compound C-1107, (S)-N-((S)-3-cyclopentyl-1-((R)-2-methyloxiran-2-yl)-1-oxopropan-2-yl)-2-((S)-2-cyclopropyl-2-(2-morpholinoacetamido)acetamido)-3-(4-methoxyphenyl)propanamide]
8 | > 10000 | C[C@H](NC(=O)CN1CCOCC1)C(=O)N[C@@H](Cc1ccn(C)c(=O)c1)C(=O)N[C@@H](CC1=CCCC1)C(=O)[C@@]1(C)CO1 [Compound C-1137, (S)-N-((S)-3-(cyclopent-1-en-1-yl)-1-((R)-2-methyloxiran-2-yl)-1-oxopropan-2-yl)-3-(1-methyl-2-oxo-1,2-dihydropyridin-4-yl)-2-((S)-2-(2-morpholinoacetamido)propanamido)propanamide]
9 | 3410 (≈ 5.26 mM) | C[C@H](NC(=O)CN1CCOCC1)C(=O)N[C@@H](Cc1ccc2c(c1)CCS(=O)(=O)N2)C(=O)N[C@@H](CC1CCCC1)C(=O)[C@@]1(C)CO1 [Compound C-1102, (S)-N-((S)-3-cyclopentyl-1-((R)-2-methyloxiran-2-yl)-1-oxopropan-2-yl)-3-(2,2-dioxido-3,4-dihydro-1H-benzo[c][1,2]thiazin-6-yl)-2-((S)-2-(2-morpholinoacetamido)propanamido)propanamide]
10 | 2760 (≈ 4.62 mM) | C[C@H](NC(=O)CN1CCOCC1)C(=O)N[C@@H](Cc1ccc2c(c1)CC(=O)N2)C(=O)N[C@@H](CC1CCCC1)C(=O)[C@@]1(C)CO1 [Compound C-1081, (S)-N-((S)-3-cyclopentyl-1-((R)-2-methyloxiran-2-yl)-1-oxopropan-2-yl)-2-((S)-2-(2-morpholinoacetamido)propanamido)-3-(2-oxoindolin-5-yl)propanamide]
11 | 230 (≈ 0.356 mM) | C[C@H](NC(=O)CN1CCOCC1)C(=O)N[C@@H](Cc1ccc2c(c1)CCNS2(=O)=O)C(=O)N[C@@H](CC1CCCC1)C(=O)[C@@]1(C)CO1 [Compound C-1091, (S)-N-((S)-3-cyclopentyl-1-((R)-2-methyloxiran-2-yl)-1-oxopropan-2-yl)-3-(1,1-dioxido-3,4-dihydro-2H-benzo[e][1,2]thiazin-6-yl)-2-((S)-2-(2-morpholinoacetamido)propanamido)propanamide]
12 | 3540 (≈ 6.08 mM) | C[C@H](NC(=O)CN1CCOCC1)C(=O)N[C@@H](Cc1ccc2[nH]cnc2c1)C(=O)N[C@@H](CC1CCCC1)C(=O)[C@@]1(C)CO1 [Compound C-1069, (S)-3-(1H-benzo[d]imidazol-5-yl)-N-((S)-3-cyclopentyl-1-((R)-2-methyloxiran-2-yl)-1-oxopropan-2-yl)-2-((S)-2-(2-morpholinoacetamido)propanamido)propanamide]
13 | 793 (≈ 1.42 mM) | C[C@H](NC(=O)CN1CCOCC1)C(=O)N[C@@H](Cc1cccc(O)c1)C(=O)N[C@@H](CC1CCCC1)C(=O)[C@@]1(C)CO1 [Compound C-1114, (S)-N-((S)-3-cyclopentyl-1-((R)-2-methyloxiran-2-yl)-1-oxopropan-2-yl)-3-(3-hydroxyphenyl)-2-((S)-2-(2-morpholinoacetamido)propanamido)propanamide]

More lines, now with the values behind:

Row | Compound | solubility [µg/mL]
14 | COc1ccc(C[C@H](NC(=O)[C@@H](C)NC(=O)[C@@H]2CCCN(C)C2)C(=O)N[C@@H](CC2=CCCC2)C(=O)[C@@]2(C)CO2)cc1 [Compound C-1099, (R)-N-((R)-1-(((S)-1-(((S)-3-(cyclopent-1-en-1-yl)-1-((R)-2-methyloxiran-2-yl)-1-oxopropan-2-yl)amino)-3-(4-methoxyphenyl)-1-oxopropan-2-yl)amino)-1-oxopropan-2-yl)-1-methylpiperidine-3-carboxamide] | 7310 (≈ 12.9 mM)
15 | COc1ccc(C[C@H](NC(=O)[C@H](C)NC(=O)CN2CCC(C)(O)CC2)C(=O)N[C@@H](CC2=CCCC2)C(=O)[C@@]2(C)CO2)cc1 [Compound C-1121, (S)-N-((S)-3-(cyclopent-1-en-1-yl)-1-((R)-2-methyloxiran-2-yl)-1-oxopropan-2-yl)-2-((S)-2-(2-(4-hydroxy-4-methylpiperidin-1-yl)acetamido)propanamido)-3-(4-methoxyphenyl)propanamide] | 287 (≈ 0.479 mM)
16 | COc1ccc(C[C@H](NC(=O)[C@H](C)NC(=O)CN2CCS(=O)(=O)CC2)C(=O)N[C@@H](CC2=CCCC2)C(=O)[C@@]2(C)CO2)cc1 [Compound C-1115, (S)-N-((S)-3-(cyclopent-1-en-1-yl)-1-((R)-2-methyloxiran-2-yl)-1-oxopropan-2-yl)-2-((S)-2-(2-(1,1-dioxidothiomorpholino)acetamido)propanamido)-3-(4-methoxyphenyl)propanamide] | 496 (≈ 0.801 mM)
17 | COc1ccc(C[C@H](NC(=O)[C@H](C)NC(=O)CN2CCOCC2)C(=O)N[C@@H](Cc2ccc(C#N)cc2)C(=O)[C@@]2(C)CO2)cc1 [Compound C-1163] | 2460 (≈ 4.06 mM)
18 | COc1ccc(C[C@H](NC(=O)[C@@H](NC(=O)CN2CCOCC2)C(F)(F)F)C(=O)N[C@@H](CC2=CCCC2)C(=O)[C@@]2(C)CO2)cc1 [Compound C-1132, (R)-N-((S)-1-(((S)-3-(cyclopent-1-en-1-yl)-1-((R)-2-methyloxiran-2-yl)-1-oxopropan-2-yl)amino)-3-(4-methoxyphenyl)-1-oxopropan-2-yl)-3,3,3-trifluoro-2-(2-morpholinoacetamido)propanamide] | 159 (≈ 0.254 mM)
19 | COc1ccc(C[C@H](NC(=O)[C@@H](C)NC(=O)[C@@H]2CC[C@H](O)C2)C(=O)N[C@@H](CC2CCCC2)C(=O)[C@@]2(C)CO2)cc1 [Compound C-1078, (1R,3S)-N-((R)-1-(((S)-1-(((S)-3-cyclopentyl-1-((R)-2-methyloxiran-2-yl)-1-oxopropan-2-yl)amino)-3-(4-methoxyphenyl)-1-oxopropan-2-yl)amino)-1-oxopropan-2-yl)-3-hydroxycyclopentanecarboxamide] | 873 (≈ 1.57 mM)
20 | COc1ccc(C[C@H](NC(=O)[C@H](C)NC(=O)C2COC2)C(=O)N[C@@H](Cc2ccccc2)C(=O)[C@@]2(C)CO2)cc1 [Compound C-1168] | 213 (≈ 0.396 mM)
21 | COc1ccc(C[C@H](NC(=O)[C@H](C)NC(=O)CN2CCOCC2)C(=O)N[C@@H](CC(F)(F)F)C(=O)[C@@]2(C)CO2)cc1 [Compound C-1226] | 3820 (≈ 6.67 mM)
22 | COc1ccc(C[C@H](NC(=O)[C@H](C)NC(=O)CN2CCOCC2)C(=O)N[C@@H](C[C@H]2CCN(C)C2=O)C(=O)[C@@]2(C)CO2)cc1 [Compound C-1040, (2S)-3-(4-methoxyphenyl)-N-((2S)-3-(1-methyl-2-oxopyrrolidin-3-yl)-1-((R)-2-methyloxiran-2-yl)-1-oxopropan-2-yl)-2-((S)-2-(2-morpholinoacetamido)propanamido) propanamide] | 12300 (≈ 20.5 mM)
23 | C#CC[C@H](NC(=O)CN1CCOCC1)C(=O)N[C@@H](Cc1ccc(OC)cc1)C(=O)N[C@@H](CC1=CCCC1)C(=O)[C@@]1(C)CO1 [Compound C-1139, (S)-N-((S)-1-(((S)-3-(Cyclopent-1-en-1-yl)-1-((R)-2-methyloxiran-2-yl)-1-oxopropan-2-yl)amino)-3-(4-methoxyphenyl)-1-oxopropan-2-yl)-2-(2-morpholinoacetamido)pent-4-ynamide] | 172 (≈ 0.289 mM)
24 | COc1ccc(C[C@H](NC(=O)[C@@H](C)NC(=O)[C@H]2CC[C@H](O)CC2)C(=O)N[C@@H](CC2CC(F)(F)C2)C(=O)[C@@]2(C)CO2)cc1 [Compound C-1073, (1r,4R)-N-((R)-1-(((S)-1-(((S)-3-(3,3-difluorocyclobutyl)-1-((R)-2-methyloxiran-2-yl)-1-oxopropan-2-yl)amino)-3-(4-methoxyphenyl)-1-oxopropan-2-yl)amino)-1-oxopropan-2-yl)-4-hydroxycyclohexanecarboxamide] | 2180 (≈ 3.67 mM)
